Results published in patent US7030287B2, “Method of decreasing nitrate nitrogen and volatile organic compound in soil and groundwater” (Matsushita Electric Industrial Co., Ltd., priority 2001, dated 2006).

What was measured:
[1] = Polluted soil experiment (Examples 4 to 7): 1,1,1-trichloroethane concentration in polluted soil by GC-MS
Text: (§1) FIG. 4 is a view showing an experiment facility used for effecting the method of decreasing nitrate nitrogen and volatile organic compounds in Example 4. A part (a) of FIG. 4 is a plan view of the experiment facility, and a part (b) of FIG. 4 is a side view thereof.
(§2) As shown in the part (a) of FIG. 4, the polluted soil 32 is provided approximately at the center of the experiment bath 34 so that it is surrounded by the experiment soil 33.
(§3) In Example 4, the concrete frame 31 in the form of square measure is a cube of 1 m square having open upper part, and artificial soil prepared by mixing kuroboku soil and loam in equivalent amounts was charged in the experiment bath 34 formed with the concrete frame 31 and allowed to stand outdoors (average temperature: 21° C.) for about 2 months.
(§4) Then, the surface of the artificial soil formed as described above was dug to form a hole in the form of cylinder having a diameter of 30 cm and a depth of 50 cm, and this hole was re-buried with the polluted soil 32.
(§5) The polluted soil was obtained by adding experiment materials (containing no nitrogen atom) such as fatty acids and alcohols of the present invention and comparative materials of conventional technologies used for comparison in an amount of 1 wt % to 1.2 ton of soil polluted with 1,1,1-trichloroethane and 1,1-dichloroethylene (containing about 1400 μg/L of […], about 50 μg/L of 1,1-dichloroethylene, by elution test according to Kankoku No. 46), and mixing kuroboku soil and loam in equivalent amounts uniformly.
(§6) To the polluted soil formed as described above was fed diammonium hydrogen phosphate having a concentration of 100 mg/L as a nutrient salt (nitrogen source) at a ratio of 140 L/day.
(§7) Under the above-mentioned conditions, the concentrations of 1,1,1-trichloroethane and 1,1-dichloroethylene in the polluted soil 32 were measured by gas chromatograph mass spectrometry 20 days after initiation of the experiment. Soils around the re-buried polluted soil 32 (soils on four corners A to D at a depth of 50 cm in FIG. 4) were sampled, and four-point average values of the total carbon concentration and total nitrogen concentration per soil dried weight were measured.
(§8) In the method of decreasing nitrate nitrogen and volatile organic compounds in Example 5, the same experiment facility (FIG. 4) as in Example 4 was used. Stearic acid was used as the decreasing agent such as fatty acids, alcohols and the like used in the present invention, and an iron powder having an average particle size of about 15 μm was added simultaneously with this stearic acid, to give polluted soil of compartment No. 1. In polluted soil of compartment No. 2, stearic acid and an aluminum powder having an average particle size of 180 μm were added in the same concentration as the polluted soil of compartment No. 1. The same experiment as in Example 4 was conducted on these polluted soils (compartment Nos. 1, 2).
(§9) In the method of decreasing nitrate nitrogen and volatile organic compounds in Example 6, the same experiment facility (FIG. 4) as in Example 4 was used. Beef tallow fatty acid was used as the decreasing agent such as fatty acids, alcohols and the like used in the present invention, and a bacteria previously cultured was inoculated to the soil and the same experiment as in Example 4 was conducted.
(§10) For obtaining the bacteria used in Example 6, 1,1,1-trichloroethane was controlled to 5000 μg/L, 1,1-dichloroethylene was controlled to 5000 μg/L, diammonium hydrogen phosphate was controlled to 800 mg/L and beef tallow fatty acid which was only carbon source was controlled to 0.5 wt % in soil collected at a point of 30 cm depth from the ground surface of agricultural land (tea field), and the medium was cultured at a temperature of 16° C. for 12 days.
(§11) In the method of decreasing nitrate nitrogen and volatile organic compounds in Example 7, the same experiment facility (FIG. 4) as in Example 4 was used. […]

[2] = Polluted soil experiment (Examples 4 to 7): 1,1-dichloroethylene concentration in polluted soil by GC-MS
Text: as §1, §2, §3, §4, §5, §6, §7, §8, §9, §10, §11

[3] = Artificial soil experiment (Example 1): materials mixed 1 wt % in kuroboku soil, analysis of water passed through the gravel layer; details: water passed through soil with 1 wt % material, nitrate nitrogen solution 90 mg/L added 100 mL/day
Experimental: FIG. 1 is a sectional view showing an artificial soil experiment facility used for effecting a soil experiment in a method of decreasing nitrate nitrogen and volatile organic compounds in Example 1.
On each experiment bath 7, nozzles are placed for adding a nitrate nitrogen solution, and these nozzles are communicated with a pipe 6 in which the nitrate nitrogen solution flows.
The following experiments were conducted using the artificial soil experiment facility constituted as described above.
In the experiment bath 7, a gravel layer 3 and experiment soil 2 are placed. In each experiment soil 2, a carrot seedling 5 is planted.
The ground surface area of the experimental bath 7 was 11 m^2, and the soil depth of the experimental soil 2 was 1.4 m. Kuroboku soil was used as the experimental soil 2. Under this experiment soil 2, a gravel layer 3 is formed by placing gravels at a thickness of 20 cm from the bottom.
In 14 compartments of experiment layers 7, five carrot seedlings having a leaf length of about 14 cm were planted in each compartment, and a nitrate nitrogen solution of which nitrate nitrogen concentration had been previously controlled to 90 mg/L was added continuously at a rate of 100 mL/day using a metering pump. Of 14 compartments of experiment layers 7, in compartments Nos. 1 to 9, experiment materials of the present invention were mixed in soil, and in compartments Nos. 10 to 14, comparative materials were mixed in soil, before experiments.
The experiment soils 2 in each test district and comparative district were made by uniformly mixing experiment materials (fatty acid, alcohol and the like) and comparative materials (materials used in conventional technologies) in a soil dry weight ratio of 1 wt %, previously.
In the artificial soil experiment facility constituted as described above, water passed through the gravel layer 3 was collected, and analyses of the nitrate nitrogen concentration, ammonia nitrogen concentration and total carbon concentration after 65 days were conducted according to JIS methods.

[4] = Artificial groundwater experiment (Example 2): 800 g hydrogen donor added from artificial well, analysis of sampled groundwater; details: 800 g material, nitrate nitrogen solution 40 mg/L added 12 mL/day
Text: FIG. 2 is a sectional view showing an artificial groundwater experiment facility used for effecting a groundwater experiment in the method of decreasing nitrate nitrogen and volatile organic compounds in Example 2.
In the experiment bath 17 surrounded by the concrete block frame 11 in the artificial groundwater experiment facility, the ground surface area of the experiment soil 12 was 18 m^2, and the soil depth was 6.0 m. Under this experiment soil 12, a gravel layer 13 is formed at a thickness of 50 cm. A mixture of kuroboku soil and loam at a ratio of about 6:4 was used as the experiment soil 12.
In the experiment bath 17, an artificial well 14 constituted of a vinyl chloride tube having a diameter of 20 cm is provided. This artificial well 14 is provided at a position 0.5 m from the inner wall surface at one end of the experiment bath 17 (this inner wall surface is standard position) and has a depth of about 6 m, and reaches to the gravel layer 13. Further, a nitrate nitrogen solution addition piper 16 for adding a nitrate nitrogen solution is buried at a position 2 m from the inner wall surface (standard position) of the experiment bath 17 in the artificial groundwater experiment facility, extending to a position 4 m depth from the ground surface. A measurement water incorporating port 15 communicating to outside is provided on another inner wall surface opposite to the standard surface, one inner wall surface. This measurement water incorporating port 15 is formed at a position 50 cm from the bottom (corresponding to the uppermost part of the gravel layer 13), and provided for sampling measurement water which is groundwater.
The following experiments were conducted in 12 compartments using the artificial soil experiment facility constituted as described above.
In each experiment bath 17, a nitrate nitrogen solution of which nitrate nitrogen concentration had been previously controlled to 40 mg/L was added continuously from the end of the nitrate nitrogen solution adding pipe 16 (position 4 m from the ground surface) at a rate of 12 mL/day using a metering pump.
Under the above-mentioned conditions, movement of artificial groundwater is estimated to about 6.5 m/year. The present inventors have added 800 g of each hydrogen donor from the artificial well 14 in each test district and each comparative district. 30 days after initiation of the test, water was sampled from the measurement water incorporating port 15 formed at a position 50 cm from the bottom (corresponding to the uppermost part of gravel layer), and analyses of the nitrate nitrogen concentration, ammonia nitrogen concentration and total carbon concentration of the collected water were conducted according to JIS methods.

[5] = Example 7, nutrient salt containing nitrogen not added
[6] = Example 4, 1 wt % material in polluted soil (about 1400 μg/L initially), diammonium hydrogen phosphate fed
[7] = Example 4, 1 wt % material in polluted soil (about 50 μg/L initially), diammonium hydrogen phosphate fed

Compound: CC(=O)O [Acetic acid, reference compound]
- 1,1,1-trichloroethane concentration after 20 days [1, 5]: 1350 µg/L
- 1,1-dichloroethylene concentration after 20 days [2, 5]: 41 µg/L

Compound: CCCCCCCCCCCCCCCCCCCCCCO [Behenyl alcohol]
- 1,1,1-trichloroethane concentration after 20 days [1, 6]: 920 µg/L
- 1,1-dichloroethylene concentration after 20 days [2, 7]: 21 µg/L

Compound: CCCCCCCC(=O)O [Caprylic acid, reference compound]
- 1,1,1-trichloroethane concentration after 20 days [1, 6]: 960 µg/L
- 1,1-dichloroethylene concentration after 20 days [2, 7]: 16 µg/L

Compound: CCCCCCCCCCCCCCCCOC(=O)CCCCCCCCCCCCCCC [Cetyl palmitate]
- Nitrate nitrogen concentration after 65 days [3]: 20 mg/L

Compound: CCCCCCCCCCCCCCCCCC(=O)O[C@H]1CC[C@@]2(C)C(=CC[C@H]3[C@@H]4CC[C@H]([C@H](C)CCCC(C)C)[C@@]4(C)CC[C@@H]32)C1 [Cholesterol stearate]
- 1,1,1-trichloroethane concentration after 20 days [1, 6]: 650 µg/L
- 1,1-dichloroethylene concentration after 20 days [2, 7]: 20 µg/L

Compound: CCCCCCCCCCCCCCCCCCC(=O)CCCCCCCCCCCCCCCCCC [Distearyl ketone]
- 1,1,1-trichloroethane concentration after 20 days [1, 5]: 830 µg/L
- 1,1-dichloroethylene concentration after 20 days [2, 5]: 20 µg/L

Compound: CCCCCCCCCCCCCCCCCCNCCCCCCCCCCCCCCCCCC [Distearylamine]
- 1,1,1-trichloroethane concentration after 20 days [1, 5]: 910 µg/L
- 1,1-dichloroethylene concentration after 20 days [2, 5]: 24 µg/L

Compound: CCO [Ethanol, reference compound]
- 1,1,1-trichloroethane concentration after 20 days [1, 6]: 1100 µg/L
- 1,1-dichloroethylene concentration after 20 days [2, 7]: 19 µg/L

Compound: CC(O)C(=O)O (stereo not drawn) [Lactic acid, reference compound]
- 1,1,1-trichloroethane concentration after 20 days [1, 6]: 870 µg/L
- 1,1-dichloroethylene concentration after 20 days [2, 7]: 20 µg/L

Compound: OC[C@H]1O[C@@H](O[C@H]2[C@H](O)[C@@H](O)C(O)O[C@@H]2CO)[C@H](O)[C@@H](O)[C@H]1O (stereo partly drawn) [Lactose, reference compound]
- Nitrate nitrogen concentration after 65 days [3]: 41 mg/L

Compound: CO [Methanol, reference compound]
- 1,1,1-trichloroethane concentration after 20 days [1, 5]: 1330 µg/L
- 1,1-dichloroethylene concentration after 20 days [2, 5]: 49 µg/L

Compound: CCCCCCCCCCCCCCOC(=O)CCCCCCCCCCCCC [Myristyl myristate]
- Nitrate nitrogen concentration after 30 days [4]: 5 mg/L

Compound: CCCCCCCCCCCCCCN [Myristylamine]
- 1,1,1-trichloroethane concentration after 20 days [1, 5]: 940 µg/L
- 1,1-dichloroethylene concentration after 20 days [2, 5]: 29 µg/L

Compound: CCCCCCCC/C=C\CCCCCCCC(=O)O [Oleic acid, reference compound]
- 1,1,1-trichloroethane concentration after 20 days [1, 6]: 690 µg/L
- 1,1-dichloroethylene concentration after 20 days [2, 7]: 21 µg/L

Compound: CCCCCCCCCCCCCCCCCC(=O)O [Stearic acid]
- Nitrate nitrogen concentration after 65 days [3]: 22 mg/L
- 1,1,1-trichloroethane concentration after 20 days [1, 6]: 820 µg/L
- 1,1-dichloroethylene concentration after 20 days [2, 7]: 24 µg/L

Compound: CCCCCCCCCCCCCCCCCC(N)=O [Stearic amide]
- 1,1,1-trichloroethane concentration after 20 days [1, 5]: 790 µg/L
- 1,1-dichloroethylene concentration after 20 days [2, 5]: 24 µg/L

Compound: CCCCCCCCCCCCCCCCCCO [Stearyl alcohol]
- Nitrate nitrogen concentration after 30 days [4]: 4 mg/L

Compound: CC(=O)O.CCCCCCCCCCCCCCCCCCN [Stearylamine acetate]
- 1,1,1-trichloroethane concentration after 20 days [1, 5]: 900 µg/L
- 1,1-dichloroethylene concentration after 20 days [2, 5]: 28 µg/L

Compound: CCCCCCCCCCCCO [lauryl alcohol]
- Nitrate nitrogen concentration after 65 days [3]: 18 mg/L

Compound: Myristilate
- Nitrate nitrogen concentration after 30 days [4]: 9 mg/L

Compound: Oleic monoglyceride
- 1,1,1-trichloroethane concentration after 20 days [1, 6]: 700 µg/L
- 1,1-dichloroethylene concentration after 20 days [2, 7]: 19 µg/L

Compound: Polyoxyethylene octylphenyl ether
- 1,1,1-trichloroethane concentration after 20 days [1, 6]: 820 µg/L
- 1,1-dichloroethylene concentration after 20 days [2, 7]: 24 µg/L

Compound: Sorbitan distearate
- Nitrate nitrogen concentration after 65 days [3]: 14 mg/L

Compound: Sorbitan monopalmitate
- Nitrate nitrogen concentration after 30 days [4]: 5 mg/L

Compound: Tetraglyceryl pentastearate
- Nitrate nitrogen concentration after 30 days [4]: 8 mg/L
